Earlier results as cited in patent publication US5496811A, “Submicron emulsions as ocular drug delivery vehicles” (priority 1992, dated 1996).

SMILES: COc1ccc2c(c1)c(CC(=O)O)c(C)n2C(=O)c1ccc(Cl)cc1 [Indomethacin]
- solubility in alkaline solutions (alkaline solutions): soluble in alkaline solutions
- stability in alkaline solutions (alkaline solutions): unstable under these conditions
- solubility in water: practically insoluble in water

SMILES: CCC1C(=O)OCC1Cc1cncn1C (centres unmarked) [Pilocarpine, 3-ethyldihydro-4-[(1-methyl-1H-imidazole-5-yl)methyl]-2(3H)-furanon]
- solubility in oil (oil): sparingly soluble in oil
- solubility in water: soluble in water
